# Experimental data reported in patent US20240226343A1, “NEUROPEPTIDE Y1 RECEPTOR (NPY1R) TARGETED THERAPEUTICS AND USES THEREOF” (RADIONETICS ONCOLOGY, INC., priority 2022, published 2024).
# Biological target: T1, hNPY1R (Homo sapiens, UniProt P25929)
# T1 construct: SK-N-MC cells endogenously expressing the NPY1R receptor; endogenous in cells; host or cells: SK-N-MC cells (crude membrane fractions)
# T1 sequence (P25929 1-384): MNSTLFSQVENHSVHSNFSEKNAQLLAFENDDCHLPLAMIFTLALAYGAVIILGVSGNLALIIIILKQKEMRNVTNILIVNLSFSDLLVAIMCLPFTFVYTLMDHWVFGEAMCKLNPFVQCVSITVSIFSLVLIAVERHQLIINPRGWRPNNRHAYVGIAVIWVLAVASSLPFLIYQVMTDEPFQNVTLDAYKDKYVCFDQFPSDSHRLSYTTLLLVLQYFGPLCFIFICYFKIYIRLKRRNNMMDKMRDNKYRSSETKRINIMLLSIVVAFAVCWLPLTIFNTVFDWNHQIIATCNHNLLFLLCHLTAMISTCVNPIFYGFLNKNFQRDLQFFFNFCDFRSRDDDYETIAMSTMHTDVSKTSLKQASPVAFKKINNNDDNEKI
# Experiment: NPY1R binding assay: SK-N-MC membranes, [125I]-Peptide YY (human) competition
# Details: data obtained after 60 minutes at 37° C.; SK-N-MC membranes; [125I]-Peptide YY 0.05 nM; read-out: hNPY1R binding Ki* †
row,SMILES,Ki [µM]
1,"CCC(=O)NCCNC(=O)/N=C(/N)NCCC[C@@H](NC(=O)C(c1ccccc1)c1ccc(NCCCNC(=O)CCOCCOCCNC(=O)CN2CCN(CC(=O)O)CCN(CC(=O)O)CCN(CC(=O)O)CC2)cc1)C(=O)NCc1ccc(O)cc1 (single isomer, unassigned) [Compound 103B]",< 0.01
2,"CCC(=O)NCCNC(=O)/N=C(/N)NCCC[C@@H](NC(=O)C(c1ccccc1)c1cccc(OCCCCNC(=O)CNC(=O)[C@@H](CC(N)=O)NC(=O)CN2CCN(CC(=O)O)CCN(CC(=O)O)CCN(CC(=O)O)CC2)c1)C(=O)NCc1ccc(O)cc1 (single isomer, unassigned) [Compound 112A]",0.01 to 0.1
3,"CCC(=O)NCCNC(=O)/N=C(/N)NCCC[C@@H](NC(=O)C(c1ccccc1)c1cccc(OCCOCCNC(=O)CN2CCN(CC(=O)O)CCN(CC(=O)O)CCN(CC(=O)O)CC2)c1)C(=O)NCc1ccc(O)cc1 (stereo partly drawn) [Compound 106, 2,2′,2″-(10-(2-((2-(2-(3-((4R,Z)-9-amino-4-((4-hydroxybenzyl)carbamoyl)-2,11,16-trioxo-1-phenyl-3,8,10,12,15-pentaazaoctadec-9-en-1-yl)phenoxy)ethoxy)ethyl)amino)-2-oxoethyl)-1,4,7,10-tetraazacyclododecane-1,4,7-triyl)triacetic acid]",< 0.01
4,"CCC(=O)NCCNC(=O)/N=C(/N)NCCC[C@@H](NC(=O)C(c1ccccc1)c1cccc(OCCCCNC(=O)CCOCCNC(=O)CN2CCN(CC(=O)O)CCN(CC(=O)O)CCN(CC(=O)O)CC2)c1)C(=O)NCc1ccc(O)cc1 (single isomer, unassigned) [Compound 108B]",< 0.01
5,"CCC(=O)NCCNC(=O)/N=C(/N)NCCC[C@@H](NC(=O)C(c1ccccc1)c1cccc(OCCCCNC(=O)CC[C@@H](NC(=O)CN2CCN(CC(=O)O)CCN(CC(=O)O)CCN(CC(=O)O)CC2)C(=O)O)c1)C(=O)NCc1ccc(O)cc1 (single isomer, unassigned) [Compound 110B]",< 0.01
6,"CCC(=O)NCCNC(=O)/N=C(/N)NCCC[C@@H](NC(=O)C(c1ccccc1)c1cccc(OCCCCNC(=O)CN2CCN(C(=O)CN3CCN(CC(=O)O)CCN(CC(=O)O)CCN(CC(=O)O)CC3)CC2)c1)C(=O)NCc1ccc(O)cc1 (single isomer, unassigned) [Compound 118B]",< 0.01
7,"CCC(=O)NCCNC(=O)/N=C(/N)NCCC[C@@H](NC(=O)C(c1ccccc1)c1cccc(OCCCCNc2c(NCCNC(=O)CN3CCN(CC(=O)O)CCN(CC(=O)O)CCN(CC(=O)O)CC3)c(=O)c2=O)c1)C(=O)NCc1ccc(O)cc1 (single isomer, unassigned) [Compound 111A]",< 0.01

# Same assay, conditions: data obtained after 120 minutes at rt; SK-N-MC membranes; [125I]-Peptide YY; read-out: hNPY.R binding Ki* ††
row,Ki [µM],SMILES
1,< 0.01,"CCC(=O)NCCNC(=O)/N=C(/N)NCCC[C@@H](NC(=O)C(c1ccccc1)c1ccc(NCCCNC(=O)CN(C)C(=O)CN(C)C(=O)CN(C)C(=O)CN2CCN(CC(=O)O)CCN(CC(=O)O)CCN(CC(=O)O)CC2)cc1)C(=O)NCc1ccc(O)cc1 (single isomer, unassigned) [Compound 159]"
2,< 0.01,"CCC(=O)NCCNC(=O)/N=C(/N)NCCC[C@@H](NC(=O)C(c1ccccc1)c1cccc(OCCCCNC(=O)[C@@H](CO)NC(=O)CCNC(=O)CN2CCN(CC(=O)O)CCN(CC(=O)O)CCN(CC(=O)O)CC2)c1)C(=O)NCc1c(F)cc(O)cc1F (single isomer, unassigned) [Compound 165B]"
3,< 0.01,"CCC(=O)NCCNC(=O)/N=C(/N)NCCC[C@@H](NC(=O)C(c1ccccc1)c1ccc(NCCCNC(=O)[C@H](N)CCCNC(=O)[C@@H](Cc2ccc(-c3ccccc3)cc2)NC(=O)CN2CCN(CC(=O)O)CCN(CC(=O)O)CCN(CC(=O)O)CC2)cc1)C(=O)NCc1ccc(O)cc1 (single isomer, unassigned) [Compound 134A]"
4,< 0.01,"CCC(=O)NCCNC(=O)/N=C(/N)NCCC[C@@H](NC(=O)C(c1ccccc1)c1ccc(NCCCNC(=O)c2ccc(C(=O)NCCCCNC(=O)CN3CCN(CC(=O)O)CCN(CC(=O)O)CCN(CC(=O)O)CC3)cc2)cc1)C(=O)NCc1ccc(O)cc1 (stereo partly drawn) [Compound 157, 2,2′,2″-(10-(2-((4-(4-((3-((4-((4R,Z)-9-amino-4-((4-hydroxybenzyl)carbamoyl)-2,11,16-trioxo-1-phenyl-3,8,10,12,15-pentaazaoctadec-9-en-1-yl)phenyl)amino)propyl)carbamoyl)benzamido)butyl)amino)-2-oxoethyl)-1,4,7,10-tetraazacyclododecane-1,4,7-triyl)triacetic acid]"
5,< 0.01,"CCC(=O)NCCNC(=O)/N=C(/N)NCCC[C@@H](NC(=O)C(c1ccccc1)c1cccc(OCCCCNC(=O)[C@@H](Cc2ccc3ccccc3c2)NC(=O)CCNC(=O)CN2CCN(CC(=O)O)CCN(CC(=O)O)CCN(CC(=O)O)CC2)c1)C(=O)NCc1ccc(O)cc1 (stereo partly drawn) [Compound 150, 2,2′,2″-(10-(2-((3-(((2R)-1-((4-(3-((4R,Z)-9-amino-4-((4-hydroxybenzyl)carbamoyl)-2,11,16-trioxo-1-phenyl-3,8,10,12,15-pentaazaoctadec-9-en-1-yl)phenoxy)butyl)amino)-3-(naphthalen-2-yl)-1-oxopropan-2-yl)amino)-3-oxopropyl)amino)-2-oxoethyl)-1,4,7,10-tetraazacyclododecane-1,4,7-triyl)triacetic acid]"
6,< 0.01,"CCC(=O)NCCNC(=O)/N=C(/N)NCCC[C@@H](NC(=O)C(c1ccccc1)c1cccc(NCCCNC(=O)CCOCCNC(=O)CN2CCN(CC(=O)O)CCN(CC(=O)O)CCN(CC(=O)O)CC2)c1)C(=O)NCc1ccc(O)cc1 (single isomer, unassigned) [Compound 121A]"
7,< 0.01,"CCC(=O)NCCNC(=O)/N=C(/N)NCCC[C@@H](NC(=O)C(c1ccccc1)c1cccc(OCCCCNC(=O)[C@@H](CO)NC(=O)CCNC(=O)CN2CCN(CC(=O)O)CCN(CC(=O)O)CCN(CC(=O)O)CC2)c1)C(=O)NCc1c(F)cc(O)cc1F (single isomer, unassigned) [Compound 165A]"
8,< 0.01,"CCC(=O)NCCNC(=O)/N=C(/N)NCCC[C@@H](NC(=O)C(c1ccccc1)c1cccc(OCCCCNC(=O)[C@@H](Cc2ccc(-c3ccccc3)cc2)NC(=O)CCNC(=O)CN2CCN(CC(=O)O)CCN(CC(=O)O)CCN(CC(=O)O)CC2)c1)C(=O)NCc1ccc(O)cc1 (stereo partly drawn) [Compound 149, 2,2′,2″-(10-(2-((3-(((2R)-3-([1,1′-biphenyl]-4-yl)-1-((4-(3-((4R,Z)-9-amino-4-((4-hydroxybenzyl)carbamoyl)-2,11,16-trioxo-1-phenyl-3,8,10,12,15-pentaazaoctadec-9-en-1-yl)phenoxy)butyl)amino)-1-oxopropan-2-yl)amino)-3-oxopropyl)amino)-2-oxoethyl)-1,4,7,10-tetraazacyclododecane-1,4,7-triyl)triacetic acid]"
9,< 0.01,"CCC(=O)NCCNC(=O)/N=C(/N)NCCC[C@@H](NC(=O)C(c1ccccc1)c1ccc(NCCCNC(=O)[C@H](N)CCCNC(=O)[C@@H](Cc2ccc(-c3ccccc3)cc2)NC(=O)CN2CCN(CC(=O)O)CCN(CC(=O)O)CCN(CC(=O)O)CC2)cc1)C(=O)NCc1ccc(O)cc1 (stereo partly drawn) [Compound 134B-In, indium (III) 2,2′,2″-(10-(2-(((R)-3-([1,1′-biphenyl]-4-yl)-1-(((R)-4-amino-5-((3-((4-((4R,Z)-9-amino-4-((4-hydroxybenzyl)carbamoyl)-2,11,16-trioxo-1-phenyl-3,8,10,12,15-pentaazaoctadec-9-en-1-yl)phenyl)amino)propyl)amino)-5-oxopentyl)amino)-1-oxopropan-2-yl)amino)-2-oxoethyl)-1,4,7,10-tetraazacyclododecane-1,4,7-triyl)triacetic acid]"

row,SMILES,Ki [µM]
1,"CCNC(=O)/N=C(/N)NCCC[C@@H](NC(=O)[C@@H](c1ccccc1)c1ccc(NCCCNC(=O)[C@H](N)CCCCNC(=O)CN2CCN(CC(=O)O)CCN(CC(=O)O)CCN(CC(=O)O)CC2)cc1)C(=O)NCc1ccc(O)cc1 (single isomer, unassigned) [Compound 144A]",< 0.01
2,"CCC(=O)NCCNC(=O)/N=C(/N)NCCC[C@@H](NC(=O)C(c1ccccc1)c1ccc(NCCNC(=O)[C@H](N)CCCNC(=O)CN2CCN(CC(=O)O)CCN(CC(=O)O)CCN(CC(=O)O)CC2)cc1)C(=O)NCc1ccc(O)cc1 (single isomer, unassigned) [Compound 143A]",< 0.01
3,"CCC(=O)NCCNC(=O)/N=C(/N)NCCC[C@@H](NC(=O)C(c1ccccc1)c1cccc(OCCCCNC(=O)CCCCCNC(=O)CN2CCN(CC(=O)O)CCN(CC(=O)O)CCN(CC(=O)O)CC2)c1)C(=O)NCc1c(F)cc(O)cc1F (single isomer, unassigned) [Compound 161B]",< 0.01
4,"CCC(=O)NCCNC(=O)/N=C(/N)NCCC[C@@H](NC(=O)C(c1ccccc1)c1ccc(NCC(=O)N(C)CCCN(C)CCCN(C)C(=O)CN2CCN(CC(=O)O)CCN(CC(=O)O)CCN(CC(=O)O)CC2)cc1)C(=O)NCc1ccc(O)cc1 (single isomer, unassigned) [Compound 139A]",< 0.01
5,"CCC(=O)NCCNC(=O)/N=C(/N)NCCC[C@@H](NC(=O)C(c1ccccc1)c1ccc(NCCCNC(=O)[C@H](N)CCCNC(=O)CN2CCN(CC(=O)O)CCN(CC(=O)O)CCN(CC(=O)O)CC2)cc1)C(=O)NCc1ccc(O)cc1 (single isomer, unassigned) [Compound 135A]",< 0.01
6,"CCC(=O)NCCNC(=O)/N=C(/N)NCCC[C@@H](NC(=O)C(c1ccccc1)c1cccc(OCCCCNc2c(NCCONC(=O)CN3CCN(CC(=O)O)CCN(CC(=O)O)CCN(CC(=O)O)CC3)c(=O)c2=O)c1)C(=O)NCc1c(F)cc(O)cc1F (single isomer, unassigned) [Compound 169]",< 0.01
7,"CCC(=O)NCCNC(=O)/N=C(/N)NCCC[C@@H](NC(=O)C(c1ccccc1)c1ccc(NCCCNC(=O)[C@H](N)CCCCNC(=O)CN2CCN(CC(=O)O)CCN(CC(=O)O)CCN(CC(=O)O)CC2)cc1)C(=O)NCc1ccc(O)cc1 (single isomer, unassigned) [Compound 132A]",< 0.01
